# Structures can show the parent of a compound that is named as a salt.
# Assays:
# [1] = molecular target: Mcl-1 protein (Homo sapiens, UniProt Q07820); experiment: Inhibition of Mcl-1 by the fluorescence polarisation technique; assay type: binding; conditions: fluorescence polarisation test; Fluorescein labelled ligand 1 nM, Mcl-1 protein 5 nM, ~2 hours at r.t.; read-out: IC50 (M) Mcl-1 FP
# Procedure, shortened: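 Competitive FP displacement of fluorescein-labelled peptide ligand (1 nM final) from Mcl-1 (5 nM final) in HEPES 10 mM, 150 mM NaCl, 0.05% Tween 20, pH 7.4, 5% DMSO final. Read after ~2 h at r.t.; IC50 from 11-point 4-parameter logistic fit of % mP reduction.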
# [2] = test system: H929 cells; experiment: In vitro cytotoxicity (MTT) on H929 multiple myeloma tumour line; assay type: cell-based; conditions: Microculture Tetrazolium Assay
# Method: The cytotoxicity studies were carried out on the H929 multiple myeloma tumour line.
# The cells are distributed onto microplates and exposed to the test compounds for 48 hours.
# The cell viability is then quantified by a colorimetric assay, the Microculture Tetrazolium Assay (Cancer Res., 1987, 47, 939-942).
# [3] = Homo sapiens, NCI-H929, exposed 48 hours
# Sequence of Mcl-1 protein (Q07820 whole entry): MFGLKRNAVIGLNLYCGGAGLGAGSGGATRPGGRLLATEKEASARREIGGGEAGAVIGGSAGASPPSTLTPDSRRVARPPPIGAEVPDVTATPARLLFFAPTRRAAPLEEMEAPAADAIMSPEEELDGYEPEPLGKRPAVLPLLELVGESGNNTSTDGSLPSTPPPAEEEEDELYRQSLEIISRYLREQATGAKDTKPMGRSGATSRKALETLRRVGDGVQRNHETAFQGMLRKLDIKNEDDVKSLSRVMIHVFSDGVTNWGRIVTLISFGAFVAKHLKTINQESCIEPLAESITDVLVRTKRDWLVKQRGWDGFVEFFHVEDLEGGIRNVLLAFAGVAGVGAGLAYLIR
Compound,IC50 [1],IC50 ([2]; exposed 48 hours),"IC50 [2, 3]"
"COCCOCCOCCOc1ccccc1-c1nccc(COc2ccccc2CC(Oc2ncnc3sc(-c4ccc(F)cc4)c(-c4ccc(OCCN5CCN(C)CC5)c(Cl)c4C)c23)C(=O)O)n1 [Example 7, (2R)-2-{[(5Sa)-5-{3-chloro-2-methyl-4-[2-(4-methylpiperazin-1-yl)ethoxy]phenyl}-6-(4-flurophenyl)thieno[2,3-d]pyrimidin-4-yl]oxy}-3-(2-{[2-(2-{2-[2-(2-methoxyethoxy)ethoxy]ethoxy}phenyl)pyrimidin-4-yl]methoxy}phenyl)propanoic acid]",3.75e-09 M,4.45 nM,–
"Cc1c(-c2c(-c3ccc(F)cc3)sc3ncnc(OC(Cc4ccccc4OCc4ccnc(-c5ccc(COC6(C)OC7OC(CO)C(O)C(O)C7O6)cc5)n4)C(=O)O)c23)ccc(OCCN2CCN(C)CC2)c1Cl [Example 22, 1,2-O-[(1R)-1-({4-[4-({2-[(2R)-2-carboxy-2-{[(5Sa)-5-{3-chloro-2-methyl-4-[2-(4-methylpiperazin-1-yl)ethoxy]phenyl}-6-(4-fluorophenyl)thieno[2,3-d]pyrimidin-4-yl]oxy}ethyl]phenoxy}methyl)pyrimidin-2-yl]benzyl}oxy)ethylidene]-β-D-mannopyranose]",5.5e-09 M,–,5.97 nM
"Cc1c(-c2c(-c3ccc(F)cc3)sc3ncnc(OC(Cc4ccccc4OCc4ccnc(-c5ccc(OCC(O)CO)cc5)n4)C(=O)O)c23)ccc(OCCN2CCN(C)CC2)c1Cl [Example 15, (2R)-2-{[(5Sa)-5-{3-chloro-2-methyl-4-[2-(4-methylpiperazin-1-yl)ethoxy]phenyl}-6-(4-fluorophehenyl)thieno[2,3-d]pyrimidin-4-yl]oxy}-3-[2-({2-[4-(2,3-dihydroxypropoxy)phenyl]pyrimidin-4-yl}methoxy)phenyl]propanoic acid]",2.75e-09 M,–,3.59 nM
"Cc1c(-c2c(-c3ccc(F)cc3)sc3ncnc(OC(Cc4ccccc4OCc4ccnc(-c5cccc(OCCOCCOCCO)c5)n4)C(=O)O)c23)ccc(OCCN2CCN(C)CC2)c1Cl [Example 38, (2R)-2-{[(5Sa)-5-{3-chloro-2-methyl-4-[2-(4-methylpiperazin-1-yl)ethoxy]phenyl}-6-(4-fluorophenyl)thieno[2,3-d]pyrimidin-4-yl]oxy}-3-(2-{[2-(3-{2-[2-(2-hydroxyethoxy)ethoxy]ethoxy}phenyl)pyrimidin-4-yl]methoxy}phenyl)propanoic acid]",2.8e-09 M,–,2.76 nM
"Cc1c(-c2c(-c3ccc(F)cc3)sc3ncnc(OC(Cc4ccccc4OCc4ccnc(-c5ccccc5OCCO)n4)C(=O)O)c23)ccc(OCCN2CCN(C)CC2)c1Cl [Example 26, (2R)-2-{[(5Sa)-5-{3-chloro-2-methyl-4-[2-(4methylpiperazin-1-yl)ethoxy]phenyl}-6-(4-fluorophenyl)thieno[2,3-d]pyrimidin-4-yl]oxy}-3-[2-({2-[2-(2-hydroxyethoxy)phenyl]pyrimidin-4-yl}methoxy)phenyl]propanoic acid]",3.45e-09 M,–,1.72 nM
"Cc1c(-c2c(-c3ccc(F)cc3)sc3ncnc(OC(Cc4ccccc4OCc4ccnc(-c5ccccc5OCC(O)CO)n4)C(=O)O)c23)ccc(OCCN2CCN(C)CC2)c1Cl [Example 25, (2R)-2-{[(5Sa)-5-{3-chloro-2-methyl-4-[2-(4-methylpiperazin-1-yl)ethoxy]phenyl}-6-(4-fluorophenyl)thieno[2,3-d]pyrimidin-4-yl]oxy}-3-[2-({2-[2-(2,3-dihydroxypropoxy)phenyl]pyrimidin-4-}methoxy)phenyl]propanoic acid]",3.45e-09 M,–,10 nM
"COCCOCCOc1cccc(-c2nccc(COc3ccccc3CC(Oc3ncnc4sc(-c5ccc(F)cc5)c(-c5ccc(OCCN6CCN(C)CC6)c(Cl)c5C)c34)C(=O)O)n2)c1 [Example 40, (2R)-2-{[(5Sa)-5-{3-chloro-2-methyl-4-[2-(4-methylpiperazin-1-yl)ethoxy]phenyl}-6-(4-fluorophenyl)thieno[2,3-d]pyrimidin-4-yl]oxy}-3-{2-[(2-{3-[2-(2-methoxyethoxy)ethoxy]phenyl}pyrimidin-4-yl)methoxy]phenyl}propanoic acid]",3.75e-09 M,–,6.15 nM
"Cc1c(-c2c(-c3ccc(F)cc3)sc3ncnc(OC(Cc4ccccc4OCc4ccnc(-c5cccc(COC(=O)NCCN6CCN(C)CC6)c5)n4)C(=O)O)c23)ccc(OCCN2CCN(C)CC2)c1Cl [Example 41, (2R)-2-{[(5Sa)-5-{3-chloro-2-methyl-4-[2-(4-methylpiperazin-1-yl)ethoxy]phenyl}-6-(4-fluorophenyl)thieno[2,3-d]pyrimidin-4-yl]oxy}-3-{2-[(2-{3-[({[2-(4-methylpiperazin-1-yl)ethyl]carbamoyl}oxy)methyl]phenyl}pyrimidin-4-yl)methoxy]phenyl}propanoic acid]",3.45e-09 M,–,90.8 nM
"COCCOCCOCCOc1ccc(-c2nccc(COc3ccccc3CC(Oc3ncnc4sc(-c5ccc(F)cc5)c(-c5ccc(OCCN6CCN(C)CC6)c(Cl)c5C)c34)C(=O)O)n2)cc1 [Example 33, (2R)-2-{[(5Sa)-5-{3-chloro-2-methyl-4-[2-(4-methylpiperazin-1-yl)ethoxy]phenyl}-6-(4-fluorophenyl)thieno[2,3-d]pyrimidin-4-yl]oxy}-3-(2-{[2-(4-{2-[2-(2-methoxyethoxy)ethoxy]ethoxy}phenyl)pyrimidin-4-yl]methoxy}phenyl)propanoic acid]",2.24e-08 M,–,1.18 nM
"Cc1c(-c2c(-c3ccc(F)cc3)sc3ncnc(OC(Cc4ccccc4OCc4ccnc(-c5ccccc5COCC5COC(C)(C)O5)n4)C(=O)O)c23)ccc(OCCN2CCN(C)CC2)c1Cl [Example 11, (2R)-2-{[(5Sa)-5-{3-chloro-2-methyl-4-[2-(4-methylpiperazin-1-yl)ethoxy]phenyl}-6-(4-fluorophenyl)thieno[2,3-d]pyrimidin-4-yl]oxy}-3-(2-{[2-(2-{[(2,2-dimethyl-1,3-dioxolan-4-yl)methoxy]methyl}phenyl)pyrimidin-4-yl]methoxy}phenyl)propanoic acid]",4.05e-09 M,–,1.99 nM
"COC1OC(COc2cccc(-c3nccc(COc4ccccc4CC(Oc4ncnc5sc(-c6ccc(F)cc6)c(-c6ccc(OCCN7CCN(C)CC7)c(Cl)c6C)c45)C(=O)O)n3)c2)C(O)C(O)C1O [Example 16, methyl 6-O-{3-[4-({2-[(2R)-2-carboxy-2-{[(5Sa)-5-{3-chloro-2-methyl-4-[2-(4-methylpiperazin-1-yl)ethoxy]phenyl}-6-(4-flurophenyl)thieno[2,3-d]pyrimidin-4-yl]oxy}ethyl]phenoxy}methyl)pyrimidin-2-yl]phenyl}-α-D-mannopyranoside]",7.2e-09 M,37.1 nM,–
"COCC(COC)Oc1cccc(-c2nccc(COc3ccccc3CC(Oc3ncnc4sc(-c5ccc(F)cc5)c(-c5ccc(OCCN6CCN(C)CC6)c(Cl)c5C)c34)C(=O)O)n2)c1 [Example 13, (2R)-2-{[(5Sa)-5-{3-chloro-2-methyl-4-[2-(4-methylpiperazin-1-yl)ethoxy]phenyl}-6-(4fluorophenyl)thieno[2,3-d]pyrimidin-4-yl]oxy}-3-{2-[(2-{3-[(1,3-dimethoxypropan-2-yl)oxy]phenyl}pyrimidin-4-yl)methoxy]phenyl}propanoic acid]",5.1e-09 M,–,3.59 nM
"Cc1c(-c2c(-c3ccc(F)cc3)sc3ncnc(OC(Cc4ccccc4OCc4ccnc(-c5cccc(OCC6COC(C)(C)O6)c5)n4)C(=O)O)c23)ccc(OCCN2CCN(C)CC2)c1Cl [Example 35, (2R) -2-{[(5Sa)-5-{3-chloro-2-methyl-4-[2-(4-methylpiperazin-1-yl)ethoxy]phenyl}-6-(4-fluorophenyl)thieno[2,3-d]pyrimidin-4-yl]oxy}-3-{2-[(2-{3-[(2,2-dimethyl-1,3-dioxolan-4-yl)methoxy]phenyl}pyrimidin-4-yl)methoxy]phenyl}propanoic acid]",5.15e-09 M,–,4.76 nM
"Cc1c(-c2c(-c3ccc(F)cc3)sc3ncnc(OC(Cc4ccccc4OCc4ccnc(-c5ccc(OCCOCCO)cc5)n4)C(=O)O)c23)ccc(OCCN2CCN(C)CC2)c1Cl [Example 32, (2R)-2-{[(5Sa)-5-{3-chloro-2-methyl-4-[2-(4-methylpiperazin-1-yl)ethoxy]phenyl}-6-(4-fluorophenl)thieno[2,3d]-pyrimidin-4-yl]oxy}-3-{2-[(2-{4-[2-(2-hydroxyethoxy)ethoxy]phenyl}pyrimidin-4-yl)methoxy]phenyl}propanoic acid]",1.53e-08 M,–,1.68 nM
"Cc1c(-c2c(-c3ccc(F)cc3)sc3ncnc(OC(Cc4ccccc4OCc4ccnc(-c5cccc(OCC(O)CO)c5)n4)C(=O)O)c23)ccc(OCCN2CCN(C)CC2)c1Cl [Example 47, (2R)-2-{[(5Sa)-5-{3-chloro-2-methyl-4-[2-(4-methylpiperazin-1-yl)ethoxy]phenyl}-6-(4-fluorophenyl)thieno[2,3-d]pyrimidin-4-yl]oxy}-3-[2-({2-[3-(2,3-dihydroxypropoxy)phenyl]pyrimidin-4-yl}methoxy)phenyl]propanoic acid]",4.05e-09 M,–,18.2 nM
"Cc1c(-c2c(-c3ccc(F)cc3)sc3ncnc(OC(Cc4ccccc4OCc4ccnc(-c5ccc(OP(=O)(O)O)cc5)n4)C(=O)O)c23)ccc(OCCN2CCN(C)CC2)c1Cl [Example 57, 4-[4-({2-[(2R)-2-carboxy-2-{[(5Sa)-5-{3-chloro-2-methyl-4-[2-(4-methylpiperazin-1 yl)ethoxy]phenyl}-6-(4-fluorophehnyl)thieno[2,3-d]pyrimidin-4-yl]oxy}ethyl]phenoxy}methyl)pyrimidin-2-yl]phenyl phosphate disodium salt]",4.6e-09 M,22.7 nM,–
